According to PubChem BioAssay (NCI):
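Test compounds were applied to cells in 96-well plates for 48 hours at 5 doses. TGI denotes the concentration required for complete inhibition of growth.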

Tests used:
Test in all cases: NCI anticancer screen, dose series, 48 h
A549 NSCLC = test system: A549 NSCLC
CAKI-1 renal = test system: CAKI-1 renal
CCRF-CEM leukemia = test system: CCRF-CEM leukemia
COLO 205 colon = test system: COLO 205 colon
HOP-62 NSCLC = test system: HOP-62 NSCLC
K-562 leukemia = test system: K-562 leukemia
KM12 colon = test system: KM12 colon
MCF7 breast = test system: MCF7 breast
MOLT-4 leukemia = test system: MOLT-4 leukemia
NCI-H460 lung = test system: NCI-H460 lung
OVCAR-3 ovarian = test system: OVCAR-3 ovarian
PC-3 prostate = test system: PC-3 prostate
RXF 393 renal = test system: RXF 393 renal
SF-295 CNS = test system: SF-295 CNS
SF-539 CNS = test system: SF-539 CNS
SK-MEL-28 melanoma = test system: SK-MEL-28 melanoma
SK-MEL-5 melanoma = test system: SK-MEL-5 melanoma
SNB-19 CNS = test system: SNB-19 CNS
SNB-75 CNS = test system: SNB-75 CNS
UACC-62 melanoma = test system: UACC-62 melanoma

| Structure (SMILES) | TGI (A549 NSCLC) | TGI (CAKI-1 renal) | TGI (CCRF-CEM leukemia) | TGI (COLO 205 colon) | TGI (HOP-62 NSCLC) | TGI (K-562 leukemia) | TGI (KM12 colon) | TGI (MCF7 breast) | TGI (MOLT-4 leukemia) | TGI (NCI-H460 lung) | TGI (OVCAR-3 ovarian) | TGI (PC-3 prostate) | TGI (RXF 393 renal) | TGI (SF-295 CNS) | TGI (SF-539 CNS) | TGI (SK-MEL-28 melanoma) | TGI (SK-MEL-5 melanoma) | TGI (SNB-19 CNS) | TGI (SNB-75 CNS) | TGI (UACC-62 melanoma) |
| --- | --- | --- | --- | --- | --- | --- | --- | --- | --- | --- | --- | --- | --- | --- | --- | --- | --- | --- | --- | --- |
| N#Cc1c(N)nc(SCc2ccccc2)c(C#N)c1-c1ccc(O)cc1 | 48.7 µM | 28.5 µM | 38.6 µM | 37.8 µM | 32.6 µM | 37.8 µM | 25.8 µM | 30.6 µM | 23.1 µM | > 65.8 µM | 33.4 µM | 33.6 µM | 45.1 µM | 32.3 µM | 57.5 µM | 33 µM | 27.1 µM | 41.6 µM | 38.9 µM | 39.8 µM |
| CN1C(=O)[C@H](c2c[nH]c3ccccc23)[C@H](c2c[nH]c3ccccc23)C1=O | > 100 µM | > 38.8 µM | 87 µM | > 37.9 µM | > 64.1 µM | > 69.5 µM | > 100 µM | > 100 µM | > 77 µM | > 50.1 µM | > 56.5 µM | > 80.4 µM | > 90.6 µM | > 73.7 µM | > 54.3 µM | > 87.6 µM | > 52.5 µM | > 100 µM | > 92.8 µM | > 54.4 µM |
| Cc1ccc(C(C)C)c(OCC(=O)N/N=C/c2c[nH]c3ccc(Br)cc23)c1 | 12.5 µM | 11.5 µM | 7 µM | 3.55 µM | 22 µM | 11.4 µM | 6.3 µM | 11.2 µM | 14.2 µM | 6.4 µM | 5.92 µM | 4.43 µM | 3.42 µM | 10.7 µM | 4 µM | 21.8 µM | 4.43 µM | 9.59 µM | 5.95 µM | 8.92 µM |
| COc1ccc2nc3n(c2c1)C(c1c(F)cccc1F)SC3 (stereo not given) | > 100 µM | > 100 µM | > 100 µM | > 100 µM | > 100 µM | > 100 µM | > 100 µM | > 100 µM | > 100 µM | > 100 µM | > 100 µM | > 100 µM | > 100 µM | > 100 µM | > 100 µM | > 100 µM | > 100 µM | 93.3 µM | > 100 µM | > 100 µM |
| C/C(O)=C(\C=NC(=S)c1cccnc1)C(=O)Nc1ccccc1C | > 100 µM | > 100 µM | > 100 µM | > 100 µM | > 100 µM | > 100 µM | > 100 µM | > 100 µM | > 100 µM | > 100 µM | > 100 µM | > 100 µM | > 100 µM | > 100 µM | > 100 µM | > 100 µM | > 100 µM | > 100 µM | > 100 µM | > 100 µM |
| CC(=O)c1c2c(cc3c1CC1(Cc4cc5c(cc4C1)C(=O)CCC5)C3)CCCC2 (stereo not given) | > 88.2 µM | > 100 µM | 5.01 µM | 21.7 µM | 43.4 µM | 4.79 µM | 78.4 µM | 18.7 µM | 7.96 µM | 67.2 µM | 54.3 µM | > 83.5 µM | > 25.7 µM | > 45.5 µM | 13.6 µM | 69.8 µM | 7.38 µM | 80.9 µM | > 26.1 µM | > 39.2 µM |
| Cc1cc2c(nn1)CCc1c-2no[n+]1[O-] | > 100 µM | > 100 µM | > 100 µM | > 100 µM | > 100 µM | > 100 µM | > 100 µM | > 100 µM | > 100 µM | > 100 µM | > 100 µM | > 100 µM | > 100 µM | > 100 µM | > 100 µM | > 100 µM | > 100 µM | > 100 µM | > 100 µM | > 100 µM |
| CC(=Nc1cccc(Cl)c1)c1ccncc1 | > 100 µM | > 100 µM | > 100 µM | > 100 µM | > 100 µM | > 100 µM | > 100 µM | > 100 µM | > 100 µM | > 100 µM | > 100 µM | > 100 µM | > 100 µM | > 100 µM | > 100 µM | > 100 µM | > 100 µM | > 100 µM | > 100 µM | > 100 µM |
| C1=Nc2ccc(cc2)-c2ccc(cc2)N=Cc2ccc(cc2)OCc2cccc(n2)COc2ccc1cc2 | > 100 µM | > 100 µM | > 100 µM | > 100 µM | > 100 µM | > 100 µM | > 100 µM | > 100 µM | > 100 µM | > 100 µM | > 100 µM | > 100 µM | > 100 µM | > 100 µM | > 100 µM | > 100 µM | > 100 µM | > 100 µM | > 100 µM | > 100 µM |
| CC(C)(C)n1c(=O)n(-c2ccccc2)n(C(C)(C)C)c1=O | > 100 µM | > 100 µM | > 100 µM | > 100 µM | > 100 µM | > 100 µM | > 100 µM | > 100 µM | > 100 µM | > 100 µM | > 100 µM | > 100 µM | > 100 µM | > 100 µM | > 100 µM | > 100 µM | > 100 µM | > 100 µM | > 100 µM | > 100 µM |
| N#C/C(=C\c1ccc([N+](=O)[O-])o1)c1n[nH]c(Cc2ccccc2)n1 | 15 µM | 3.96 µM | 1.81 µM | 2.74 µM | 5.92 µM | > 22.3 µM | 6.69 µM | 7.05 µM | > 100 µM | 12.2 µM | 3.01 µM | 7.43 µM | 2.76 µM | 20.1 µM | 5.78 µM | 4.09 µM | 2.51 µM | 17.3 µM | 6.75 µM | 3.55 µM |
| CN(/N=C/C=N/N(C)C1=NCCCN1)C1=NCCCN1 | > 100 µM | > 100 µM | > 100 µM | > 100 µM | > 100 µM | > 100 µM | > 100 µM | > 100 µM | > 100 µM | > 100 µM | > 100 µM | > 100 µM | > 100 µM | > 100 µM | > 100 µM | > 100 µM | > 100 µM | > 100 µM | > 100 µM | > 100 µM |
| CC1CC(=NC2CCCCC2)Nc2ccccc2N1Cc1ccccc1 (stereo not given) | 16.5 µM | 19.2 µM | > 36.4 µM | 17 µM | 20.3 µM | > 36.1 µM | 17 µM | 14.5 µM | 30 µM | 14.5 µM | 20.4 µM | 18.3 µM | 10.5 µM | 19.4 µM | 22.5 µM | 17.7 µM | 6.77 µM | 24.2 µM | 3.18 µM | 3.69 µM |
| CC(=O)O[C@H]1CC[C@H]2[C@@H]3CCC4=C/C(=N/OCCN(C)C)CC[C@]4(C)[C@H]3CC[C@]12C | 25.6 µM | 27.2 µM | 10.1 µM | 8.18 µM | 27.5 µM | > 21.2 µM | 18.9 µM | 17.9 µM | 13 µM | 20.4 µM | 26.7 µM | 27.3 µM | 27.8 µM | 17.5 µM | 7.28 µM | 27.8 µM | 9.62 µM | 22.4 µM | 19.1 µM | 15.4 µM |
